In US20240350597A1, “PROTEASE INHIBITORS” (University College Dublin, priority 2023, published 2024):

What was measured:
pancreatic elastase = test: Protease inhibition assay, elastase; type: biochemical; conditions: 10 min preincubation, A1AT compared with B3-TMP
Method: (§1) Proteases were incubated with a 1:5 molar excess of serpin and residual activity was determined by cleavage of fluorescent substrates. All assays were carried out at room temperature in 96-well plates in a total volume of 100 μL. Residual proteolytic activity was measured using a SpectraMax M3 Microplate Reader (Molecular Devices, Inc), using the appropriate buffer and synthetic fluorogenic peptide substrate: Cathepsin L, Z-FR-AMC (10 μM), 50 mM Na-Acetate, 100 mM NaCl, 1 mM EDTA, pH 5.5; Chymotrypsin, Z-AAPF-AMC (5 μM), PBS, 1 mg/ml BSA; Elastase, Met-O-Suc-AAPV-AMC (10 μM), 50 mM Tris, 120 mM NaCl, pH 8.0, 1 mg/ml BSA; Furin, Boc-RVRR-AMC (50 μM) 20 mM Tris, 1 mM CaCl2), 0.5% Brij-35, pH 9; TMPRSS2, Boc-QAR-AMC (80 μM), PBS; Trypsin, Z-FR-AMC (10 μM), 50 mM Tris, 0.2 mM DTT, 1 mg/ml BSA. The excitation and emission wavelengths used were 380 nm and 460 nm respectively. All assays were performed in triplicate.
(§2) As an indication of target protease selectivity, both serpins were tested with mammalian trypsin, chymotrypsin and elastase, in addition to TMPRSS2. A short preincubation time of 10 minutes prior to addition of fluorogenic substrate was used and residual activity determined.

chymotrypsin = test: Protease inhibition assay, chymotrypsin; type: biochemical; conditions: 10 min preincubation, A1AT compared with B3-TMP
Method: as §1, §2

TMPRSS2 [1] = target: T1, TMPRSS2 (Homo sapiens, UniProt O15393); test: Kinetic analysis of TMPRSS2 inhibition under pseudo first-order conditions; type: biochemical; conditions: room temperature, TMPRSS2 0.1 μM
T1 construct: purchased Cusabio Technology
Method: For kinetic analysis of TMPRSS2 inhibition, second order inhibition rate constants were determined under pseudo first-order conditions using a range of serpin concentrations, and with TMPRSS2 buffer and substrate detailed above. Reactions were performed at room temperature and residual activity was determined at intervals over a 10 min incubation with a molar excess of serpin over protease. Concentration ranges were 0.12 to 0.44 μM for B3-TMP and 1.0 to 4 μM for A1AT. The apparent first order rate constant kobs for each concentration was calculated from the slope of the natural log of residual activity over time (−kobs). These values were plotted against inhibitor concentration and linear regression analysis of this plot gave the second order inhibition rate constant k2, with standard error determined.

mammalian trypsin = test: Protease inhibition assay, trypsin; type: biochemical; conditions: 10 min preincubation, A1AT compared with B3-TMP
Method: as §1, §2

TMPRSS2 [2] = target: T1, TMPRSS2; type: biochemical; conditions: 5:1 serpin:protease ratio, 10 min incubation, substrate Boc-QAR-AMC
[3] = tested on: SARS-CoV-2 Spike pseudoparticles; type: cell-based; conditions: 12.5 μM, A549-ACE2-TMPRSS2 cells

T1 sequence (O15393 whole entry): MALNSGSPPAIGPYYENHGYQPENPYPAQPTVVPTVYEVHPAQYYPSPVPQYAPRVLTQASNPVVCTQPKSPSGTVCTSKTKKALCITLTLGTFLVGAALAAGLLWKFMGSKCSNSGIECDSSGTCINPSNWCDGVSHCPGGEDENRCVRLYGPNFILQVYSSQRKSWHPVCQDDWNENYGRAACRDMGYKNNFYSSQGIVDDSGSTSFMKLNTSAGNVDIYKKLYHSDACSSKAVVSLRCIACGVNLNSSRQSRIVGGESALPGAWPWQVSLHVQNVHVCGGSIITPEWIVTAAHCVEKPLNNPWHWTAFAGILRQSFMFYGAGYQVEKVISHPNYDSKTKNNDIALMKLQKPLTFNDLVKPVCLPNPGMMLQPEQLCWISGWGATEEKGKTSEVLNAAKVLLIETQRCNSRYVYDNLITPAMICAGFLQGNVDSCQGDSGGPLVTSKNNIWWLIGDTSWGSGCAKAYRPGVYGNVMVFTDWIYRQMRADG

## alpha-1-antitrypsin [A1AT]
Pancreatic elastase
  pancreatic elastase inhibition (in words): more effective inhibitor
chymotrypsin
  chymotrypsin inhibition (in words): more effective inhibitor
TMPRSS2 [1]
  second order inhibition rate constant k2 of TMPRSS2 inhibition: (4.8±0.55)×10^2 M^−1 s^−1
Mammalian trypsin
  trypsin inhibition (in words): more effective inhibitor
TMPRSS2 [2]
  inhibition of TMPRSS2: 15%
[3]
  inhibition of pseudoparticle entry: 40%
